Key:
[1] = system: A. brasilliensis (AB); assay: Agar dilution test; format: cell-based, Aspergillus brasiliensis; design: key: (+) indicates growth; (+/−) indicates partial growth; (−) indicates no growth; settings: Table 4, 24-48 hours
Method: (§1) An agar dilution test was carried out for various combinations of saponin extract (Sapindus mukorossi) and Styrax extract (Sumatra benzoin), with maltol extracted from wheat as an additional plant extract, for evaluating the synergistic antimicrobial effect therebetween.
(§2) The agar dilution test was carried out as follows: TSA (tryptic soy agar) or SDA (Sabouraud dextrose agar) media were melted at 99±2° C. and kept warm until seeding (43±2° C.). Into a quota of the growth medium, the maltol and extract were added and stirred. 5 ml of the mixture was poured into each test plate and left to cool and solidify. The plates were then inoculated by defined amounts of test microorganisms (E. coli, S. aureus and P. aeruginosa used on TSA plates, C. albicans and A. brasilliensis used on the SDA plates). The plates were incubated at 25-35° C. for 24-48 hours and then assessed for microorganisms' growth.
(§3) The test results for the combinations of saponin and Styrax extracts with maltol are detailed in Table 4, while the results for the compositions of saponin and Styrax extracts with maltol and citric acid are shown in Table 5. (+) indicates growth, (+/−) indicates partial growth, while (−) indicates no growth. Positive control was obtained by utilizing a commercial preservative. […]

[2] = system: C. albicans (CA); assay: Agar dilution test; format: cell-based, Candida albicans; design: key: (+) indicates growth; (+/−) indicates partial growth; (−) indicates no growth; settings: Table 4, 24-48 hours
Method: as §1, §2, §3

[3] = system: E. coli (EC); assay: Agar dilution test; format: cell-based, Escherichia coli; design: key: (+) indicates growth; (+/−) indicates partial growth; (−) indicates no growth; settings: Table 4, 24-48 hours
Method: as §1, §2, §3

[4] = system: P. aeruginosa (PA); assay: Agar dilution test; format: cell-based, Pseudomonas aeruginosa; design: key: (+) indicates growth; (+/−) indicates partial growth; (−) indicates no growth; settings: Table 4, 24-48 hours
Method: as §1, §2, §3

[5] = system: S. aureus (SA); assay: Agar dilution test; format: cell-based, Staphylococcus aureus; design: key: (+) indicates growth; (+/−) indicates partial growth; (−) indicates no growth; settings: Table 4, 24-48 hours
Method: as §1, §2, §3

[6] = system: mixture of S. aureus, S. capitis, S. epidermis and S. hominis; assay: Agar plates of cream samples inoculated with skin microbiota mixture (FIGS. 1A-1D); format: cell-based; settings: cream sample; after 7 hours of incubation
Method: FIGS. […] The upper panel of each agar plate was plated with mixture of representative microorganisms to provide a control to each of the experiments.
The mixture of microorganisms represents the natural skin microbiota. […] In comparison, FIGS. 1C and 1D show samples of the cream with the bottom half of the sample containing the compositions 5A and 5B, respectively, and without preservative in the upper half.

Compound | Agar dilution test result (growth), AB ([1]; Teat 2 (duplicate)) | Agar dilution test result (growth), AB ([1]; Test 1) | Agar dilution test result (growth), CA ([2]; Teat 2 (duplicate)) | Agar dilution test result (growth), CA ([2]; Test 1) | Agar dilution test result (growth), EC ([3]; Teat 2 (duplicate)) | Agar dilution test result (growth), EC ([3]; Test 1) | Agar dilution test result (growth), PA ([4]; Teat 2 (duplicate)) | Agar dilution test result (growth), PA ([4]; Test 1) | Agar dilution test result (growth), SA ([5]; Teat 2 (duplicate)) | Agar dilution test result (growth), SA ([5]; Test 1) | effect on natural skin microbiota on agar plate (FIGS. 1A-1D) [6]
Cc1occc(=O)c1O [ML 0.1%, maltol] | +/− | +/− | − | − | + | + | − | − | − | − | 
Cc1occc(=O)c1O [ML 0.02%, maltol] | + | + | + | + | + | + | + | + | + | + | 
Cc1occc(=O)c1O [ML 0.2%, maltol] | − | − | − | − | − | − | − | − | − | − | 
Cc1occc(=O)c1O [ML 0.04%, maltol] | + | + | +/− | +/− | + | + | + | + | +/− | +/− | 
Cc1occc(=O)c1O [ML 0.05%, maltol] | + | + | + | + | + | + | +/− | +/− | +/− | +/− | 
Cc1occc(=O)c1O [ML 0.08%, maltol] | +/− | +/− | − | − | +/− | +/− | − | − | + | + | 
CCCCC(CC)COCC(O)CO (stereo not shown) [commercial synthetic preservative, ethylhexyl glycerin] |  |  |  |  |  |  |  |  |  |  | almost complete elimination of the microbiota
